Assay results taken from ChEMBL document CHEMBL5291721, “A preclinical secondary pharmacology resource illuminates target-adverse drug reaction associations of marketed drugs” (Nat Commun, 2023).

Key:
[1] = target: T1, 5-hydroxytryptamine receptor 2A (Homo sapiens, UniProt P28223); format: functional, cell-based
Cannabinoid receptor 1 [2] = target: T2, Cannabinoid receptor 1 (Homo sapiens, UniProt P21554); format: functional, cell-based
Melanocortin receptor 4 = Melanocortin receptor 4 (Homo sapiens, UniProt P32245)
[3] = target: Muscarinic acetylcholine receptor M3 (Homo sapiens, UniProt P20309)
Estrogen receptor = target: T3, Estrogen receptor (Homo sapiens, UniProt P03372)
T3 sequence (P03372 whole entry): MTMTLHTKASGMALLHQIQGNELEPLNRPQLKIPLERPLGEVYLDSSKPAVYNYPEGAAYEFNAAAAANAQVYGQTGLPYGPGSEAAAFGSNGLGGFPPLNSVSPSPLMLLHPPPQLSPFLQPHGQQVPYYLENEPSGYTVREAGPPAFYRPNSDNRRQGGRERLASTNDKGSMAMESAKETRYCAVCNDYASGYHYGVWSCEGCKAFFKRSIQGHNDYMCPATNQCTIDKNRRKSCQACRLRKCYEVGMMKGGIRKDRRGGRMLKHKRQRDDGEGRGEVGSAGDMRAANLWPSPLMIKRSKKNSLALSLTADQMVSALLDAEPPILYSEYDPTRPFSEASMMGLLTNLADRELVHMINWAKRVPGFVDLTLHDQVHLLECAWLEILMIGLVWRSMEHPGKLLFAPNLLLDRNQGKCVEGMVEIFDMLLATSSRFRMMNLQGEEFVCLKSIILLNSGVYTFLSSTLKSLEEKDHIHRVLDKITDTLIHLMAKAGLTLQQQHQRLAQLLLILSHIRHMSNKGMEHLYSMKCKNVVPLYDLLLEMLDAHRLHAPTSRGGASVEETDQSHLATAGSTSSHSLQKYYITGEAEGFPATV

[4] = target: T4, Alpha-1A adrenergic receptor (Homo sapiens, UniProt P35348)
T4 sequence (P35348 whole entry): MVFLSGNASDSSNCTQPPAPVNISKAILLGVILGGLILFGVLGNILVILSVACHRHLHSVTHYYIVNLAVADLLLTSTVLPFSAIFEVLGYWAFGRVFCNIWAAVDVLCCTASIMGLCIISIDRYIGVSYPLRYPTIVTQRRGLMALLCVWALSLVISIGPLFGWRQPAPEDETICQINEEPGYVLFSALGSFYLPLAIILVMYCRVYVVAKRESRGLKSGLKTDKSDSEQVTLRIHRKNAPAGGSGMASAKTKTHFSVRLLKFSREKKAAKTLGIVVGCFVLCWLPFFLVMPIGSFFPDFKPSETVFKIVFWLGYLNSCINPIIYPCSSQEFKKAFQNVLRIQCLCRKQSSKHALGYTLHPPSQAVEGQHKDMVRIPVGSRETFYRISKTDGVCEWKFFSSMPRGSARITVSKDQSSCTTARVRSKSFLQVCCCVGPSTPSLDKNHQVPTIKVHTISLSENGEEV

[5] = target: T5, Muscarinic acetylcholine receptor M1 (Homo sapiens, UniProt P11229); format: functional
T5 sequence (P11229 whole entry): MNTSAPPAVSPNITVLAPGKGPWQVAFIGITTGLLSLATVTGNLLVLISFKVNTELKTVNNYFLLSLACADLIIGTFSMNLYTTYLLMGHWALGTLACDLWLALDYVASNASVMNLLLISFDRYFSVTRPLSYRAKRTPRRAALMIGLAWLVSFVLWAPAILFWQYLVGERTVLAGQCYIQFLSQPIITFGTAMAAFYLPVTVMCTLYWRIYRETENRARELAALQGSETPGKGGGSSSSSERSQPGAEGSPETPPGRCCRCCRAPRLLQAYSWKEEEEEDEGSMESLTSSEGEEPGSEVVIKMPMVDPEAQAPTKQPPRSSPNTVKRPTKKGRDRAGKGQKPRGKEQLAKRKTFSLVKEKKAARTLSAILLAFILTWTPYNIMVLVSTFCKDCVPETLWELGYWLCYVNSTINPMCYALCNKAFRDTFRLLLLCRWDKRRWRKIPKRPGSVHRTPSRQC

[6] = target: T6, 5-hydroxytryptamine receptor 1A (Homo sapiens, UniProt P08908); format: functional, cell-based
T6 sequence (P08908 whole entry): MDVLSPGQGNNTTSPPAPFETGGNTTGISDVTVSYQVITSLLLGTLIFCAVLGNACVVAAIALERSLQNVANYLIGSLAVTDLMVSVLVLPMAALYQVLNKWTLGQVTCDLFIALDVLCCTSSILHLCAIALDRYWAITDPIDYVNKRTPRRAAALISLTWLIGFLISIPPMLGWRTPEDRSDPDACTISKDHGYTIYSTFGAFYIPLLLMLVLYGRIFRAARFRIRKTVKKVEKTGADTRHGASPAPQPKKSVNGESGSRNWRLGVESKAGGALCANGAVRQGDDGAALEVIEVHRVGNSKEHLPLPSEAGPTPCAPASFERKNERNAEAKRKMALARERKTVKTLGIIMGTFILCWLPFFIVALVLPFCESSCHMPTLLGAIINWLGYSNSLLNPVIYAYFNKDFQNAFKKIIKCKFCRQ

[7] = target: T1, 5-hydroxytryptamine receptor 2A; format: functional, cell-based; remark: listed apart in the source
Mu-type opioid receptor = Mu-type opioid receptor (Homo sapiens, UniProt P35372); experiment: biochemical; format: functional
[8] = target: T4, Alpha-1A adrenergic receptor; format: functional, cell-based
[9] = target: T7, Alpha-2B adrenergic receptor (Homo sapiens, UniProt P18089)
T7 sequence (P18089 whole entry): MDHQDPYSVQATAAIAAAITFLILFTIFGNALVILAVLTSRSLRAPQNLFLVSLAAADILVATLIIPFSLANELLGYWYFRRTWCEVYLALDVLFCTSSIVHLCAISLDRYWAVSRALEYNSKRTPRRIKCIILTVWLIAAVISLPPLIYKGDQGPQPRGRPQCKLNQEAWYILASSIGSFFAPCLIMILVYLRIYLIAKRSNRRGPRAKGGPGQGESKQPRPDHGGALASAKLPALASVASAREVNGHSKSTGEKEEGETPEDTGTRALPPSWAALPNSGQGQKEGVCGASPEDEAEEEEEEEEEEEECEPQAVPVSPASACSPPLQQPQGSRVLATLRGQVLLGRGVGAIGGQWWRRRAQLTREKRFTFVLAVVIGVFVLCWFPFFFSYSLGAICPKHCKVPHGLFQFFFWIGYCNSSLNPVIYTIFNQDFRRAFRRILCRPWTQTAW

Cannabinoid receptor 1 [10] = target: T2, Cannabinoid receptor 1
Further: assay procedure not described here.

Chain of Muscarinic acetylcholine receptor M3 (P20309 whole entry): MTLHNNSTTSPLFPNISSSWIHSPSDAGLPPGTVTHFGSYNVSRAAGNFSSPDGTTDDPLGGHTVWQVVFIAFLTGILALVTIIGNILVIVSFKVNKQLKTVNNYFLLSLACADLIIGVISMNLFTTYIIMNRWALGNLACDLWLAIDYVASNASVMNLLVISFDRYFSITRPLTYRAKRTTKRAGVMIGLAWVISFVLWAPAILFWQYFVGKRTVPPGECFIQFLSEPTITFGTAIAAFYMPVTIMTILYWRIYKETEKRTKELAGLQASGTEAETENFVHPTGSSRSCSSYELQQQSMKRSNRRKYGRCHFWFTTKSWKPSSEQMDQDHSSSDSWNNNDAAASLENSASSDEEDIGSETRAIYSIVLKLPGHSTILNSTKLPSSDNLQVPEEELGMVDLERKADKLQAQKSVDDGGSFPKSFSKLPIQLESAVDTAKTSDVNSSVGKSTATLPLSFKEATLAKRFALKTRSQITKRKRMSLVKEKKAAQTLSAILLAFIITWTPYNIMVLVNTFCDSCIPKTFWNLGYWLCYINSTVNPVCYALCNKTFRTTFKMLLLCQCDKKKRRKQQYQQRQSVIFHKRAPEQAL
T2 sequence (P21554 whole entry): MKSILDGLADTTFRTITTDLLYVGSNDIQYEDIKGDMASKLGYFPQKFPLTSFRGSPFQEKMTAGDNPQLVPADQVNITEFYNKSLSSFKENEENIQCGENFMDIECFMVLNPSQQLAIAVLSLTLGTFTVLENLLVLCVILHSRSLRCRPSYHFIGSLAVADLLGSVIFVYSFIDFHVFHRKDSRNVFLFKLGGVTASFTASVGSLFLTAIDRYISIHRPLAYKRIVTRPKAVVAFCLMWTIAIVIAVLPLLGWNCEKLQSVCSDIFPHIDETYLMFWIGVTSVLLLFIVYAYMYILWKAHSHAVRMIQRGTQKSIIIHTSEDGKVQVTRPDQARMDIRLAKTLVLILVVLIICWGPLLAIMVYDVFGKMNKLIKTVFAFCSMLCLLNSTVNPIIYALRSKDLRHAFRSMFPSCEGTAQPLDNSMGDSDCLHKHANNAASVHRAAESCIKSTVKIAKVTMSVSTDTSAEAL
T1 sequence (P28223 whole entry): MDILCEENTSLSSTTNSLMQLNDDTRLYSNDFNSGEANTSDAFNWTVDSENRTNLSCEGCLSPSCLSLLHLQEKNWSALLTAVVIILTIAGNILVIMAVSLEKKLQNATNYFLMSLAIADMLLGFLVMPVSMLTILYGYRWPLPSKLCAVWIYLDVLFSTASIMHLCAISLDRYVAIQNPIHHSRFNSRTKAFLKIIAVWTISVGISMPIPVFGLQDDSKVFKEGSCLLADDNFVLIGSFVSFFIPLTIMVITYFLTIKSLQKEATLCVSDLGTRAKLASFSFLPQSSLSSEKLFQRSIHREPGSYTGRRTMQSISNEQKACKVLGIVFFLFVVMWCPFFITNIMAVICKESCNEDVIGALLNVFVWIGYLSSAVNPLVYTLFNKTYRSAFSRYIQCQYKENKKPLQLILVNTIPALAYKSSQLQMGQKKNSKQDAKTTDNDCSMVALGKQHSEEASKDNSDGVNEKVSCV
Chain of Melanocortin receptor 4 (P32245 whole entry): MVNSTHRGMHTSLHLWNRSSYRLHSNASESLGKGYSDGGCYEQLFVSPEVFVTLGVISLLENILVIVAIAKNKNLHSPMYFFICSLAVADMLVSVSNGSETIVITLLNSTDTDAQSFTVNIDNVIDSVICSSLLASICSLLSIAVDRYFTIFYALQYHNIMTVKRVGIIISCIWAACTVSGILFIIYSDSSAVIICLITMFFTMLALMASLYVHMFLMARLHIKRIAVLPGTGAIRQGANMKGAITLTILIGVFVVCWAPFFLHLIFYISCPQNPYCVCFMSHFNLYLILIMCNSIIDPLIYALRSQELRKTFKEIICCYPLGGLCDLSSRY
Chain of Mu-type opioid receptor (P35372 whole entry): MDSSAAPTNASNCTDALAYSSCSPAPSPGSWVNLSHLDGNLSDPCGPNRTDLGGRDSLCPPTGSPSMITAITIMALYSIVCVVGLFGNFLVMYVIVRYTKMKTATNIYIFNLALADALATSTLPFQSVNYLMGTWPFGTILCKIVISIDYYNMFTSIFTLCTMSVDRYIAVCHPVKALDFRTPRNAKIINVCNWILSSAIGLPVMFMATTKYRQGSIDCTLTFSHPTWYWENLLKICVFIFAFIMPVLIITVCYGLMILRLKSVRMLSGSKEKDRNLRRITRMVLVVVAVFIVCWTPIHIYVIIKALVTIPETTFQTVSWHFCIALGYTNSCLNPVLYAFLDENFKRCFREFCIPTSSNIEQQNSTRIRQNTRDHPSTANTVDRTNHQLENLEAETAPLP

SMILES	AC50 [1] [µM]	AC50 (Cannabinoid receptor 1 [2]) [µM]	AC50 (Melanocortin receptor 4) [µM]	AC50 [3] [µM]	AC50 (Estrogen receptor) [µM]	AC50 [4] [µM]	AC50 [5] [µM]	AC50 [6] [µM]	AC50 [7] [µM]	AC50 (Mu-type opioid receptor) [µM]	AC50 [8] [µM]	AC50 [9] [µM]	AC50 (Cannabinoid receptor 1 [10]) [µM]
CC(=O)c1ccc(S(=O)(=O)NC(=O)NC2CCCCC2)cc1 [ACETOHEXAMIDE]	> 30	> 30	> 10	> 30	> 10	> 10	> 10	> 10	> 30	> 30	> 30	> 10	> 10
NS(=O)(=O)c1cc2c(cc1Cl)N=C(CSCc1ccccc1)NS2(=O)=O [BENZTHIAZIDE]	> 10	–	> 10	> 30	> 30	> 30	> 30	> 10	> 10	> 30	–	7.4	> 10
CC1=C(/C=C/C(C)=C/C=C/C(C)=C/CO)C(C)(C)CCC1 [RETINOL]	> 10	–	> 10	> 30	> 30	> 10	> 10	> 10	> 10	> 30	–	> 30	> 10
